The nature of series [1]: Host cell cytotoxicity in the image-based assay (total host cells). The conditions noted are these: rat, H9c2 rat cardiomyoblasts (infected with T. cruzi), 72 h treatment. The procedure:
Tested compounds were dissolved and serially diluted in dimethylsulfoxide (DMSO) using a half-log dilution across six concentrations. Intermediate plates were prepared by diluting compounds 1:25 in DMEM (Dulbecco’s Modified Eagle Medium) with 10% FBS (Fetal Bovine Serum). The assay was based on [Fredo Naciuk et al. (2020)], with minor modifications. Briefly, T. cruzi trypomastigotes (from LLC-MK2 cultures, 6 days post-infection) were used to infect H9c2 rat cardiomyoblasts overnight (16–18 h) at MOI 1. After washing with PBS, cells were trypsinized and resuspended in DMEM at 2.3 × 10^4 cells/mL. Then, 65 μL per well was plated in 384-well plates and incubated for 24 h (37 °C, 5% CO2, >95% humidity). Subsequently, 7.5 μL of compound solution was added (final [DMSO] 0.4%). After 72 h of treatment, cells were fixed with 4% PFA and stained with Hoechst 33342 (4 μg/mL). Six images per well were acquired using the Operetta system (PerkinElmer) and analyzed with Columbus software to quantify infected cells (≥3 cytoplasmic parasite spots).

A further series in a line: in vitro. The class given is in vitro ADME. As to conditions: for Papp at 5 h, 100 μM: PAMPA. The procedure: The parallel artificial membrane permeability assay (PAMPA) was performed using a 96-well pre-coated plate system (Corning® BioCoat™ PAMPA Plate System). […] A total of 200 µL of each solution was added to donor wells, while 300 µL of PBS was placed in the corresponding acceptor wells. The plates were assembled and incubated at 37 °C for 5 h. Aliquots of the initial donor solution (T0) were collected before incubation and stored at −20 °C. At the end of the incubation, samples from donor and acceptor compartments were transferred to tubes containing 30% (v/v) acetonitrile and processed under identical conditions. Compound concentrations in donor, acceptor, and T0 samples were quantified by high-performance liquid chromatography with ultraviolet detection (HPLC-UV) using validated chromatographic conditions. The apparent permeability coefficient (Papp) was calculated using the standard PAMPA equation, shown below. All experiments were performed in a trplicate.
The Papp equation is: Papp=−VD+VA/At VD+VAln 1−CA t/Ceq

Series [2] is described as follows: Metabolic stability in human liver microsomes. In kind it is in vitro ADME. As to conditions: for half-life at 1 μM / microsomal CLint at 1 μM: pooled liver microsomes, pH 7.4, human liver microsomes; for half-life at 1 μM: 0.25 mg/mL, read-out: T1/2 human; for microsomal CLint at 1 μM: read-out: CL int. mic.; for parent compound remaining: human microsomes. On the procedure: The in vitro metabolic stability of the compound was evaluated in pooled human liver microsomes (HLM, 20 mg/mL), Sprague-Dawley rat liver microsomes (RLM, 20 mg/mL), and CD-1 mouse liver microsomes (MLM, 20 mg/mL), all purchased from GIBCO (Thermo Fisher Scientific). NADPH regenerating system (GentestTM) was prepared in potassium phosphate buffer (100 mM, pH 7.4). […] The reaction was stopped by adding acetonitrile, followed by vortex homogenization, sonication for 5 min, and centrifugation at 10,000 g for 5 min at 4 °C. The supernatants were transferred to glass vials for LC-MS/MS analysis. The half-life was estimated based on the area under the curve (AUC) through regression analysis of the concentration decay over time. This calculation was performed using the following formula: t1/2=LN2/Kel
Where LN is the neperian logarithm, and K is the slope of the regression of the LN of AUC as a function of time. Then, the microsomal intrinsic clearance (CLint, mic) was calculated using the following equation: CLint.mic=LN2/t1/2 x VI/PM
Where V is the incubation volume (µL), and PM is the microsomal protein concentration (mg). This intrinsic clearance can be extrapolated to the whole liver (CLint,hep) using the following equation: CLint.hep=CLint.mic x ML x LB
ML is the microsomal yield, and LB is the liver weight (g) per kilogram of body weight.
To ensure the linearity of the elimination phase and to avoid the influence of points outside the log-linear range, the points deviated from the expected first-order kinetic profile were excluded. The supernatants were analyzed by UPLC-Xevo-TQ-XS from Waters. Chromatographic separation was performed on an Acquity UPLC BEH C18 column (2.1 × 100 mm, 1.7 µm particle size), maintained at 40 °C. The mobile phases were (A) water with 0.1% formic acid and (B) acetonitrile with 0.1% formic acid. […] The total run time was 5 min.
(In general: Liver microsomes are vesicles of endoplasmic reticulum, rich in cytochrome P450 enzymes.)

Series [3] is described as follows: Oral bioavailability (plasma concentration). In kind it is in vivo, BALB/c mice. As to conditions: mice; for concentration at 1 h: female, BALB/c, mouse, plasma, 50 mg/kg, oral administration, after 1 h; for plasma concentration (in words): single oral dose 50 mg/kg, 5-60 min. On the procedure:
For the in vivo assays, female BALB/c mice, aged between 8 and 9 weeks and weighing approximately 25 g, were used. […] After preparation, three animals received a single oral dose of 50 mg/kg for each compound via gavage. The control group received only the vehicle. Blood samples were collected at 5-, 15-, 30-, 45-, and 60-minute post-administration using submandibular vein puncture, retro-orbital collection, and intracardiac (terminal) puncture. The mice were maintained under inhalation anesthesia with 3% isoflurane throughout the sampling period to ensure animal welfare. Blood samples were transferred to heparin-containing tubes and processed by centrifugation (4,000 rpm, 10 min, 4 °C) to separate the plasma. The obtained plasma was transferred to clean vials and stored at -80 °C until analysis. Compound quantification was performed using ultra-performance liquid chromatography coupled with tandem mass spectrometry (UPLC-MS/MS).

Setting [4] is: pH 5.5, PAMPA pH 5,5 Papp - lower.
[5] abbreviates: pH 5.5, PAMPA pH 5,5 Papp - upper.
The mark [6] stands for this setting: pH 7.4, PAMPA pH 7,4 Papp - lower.
Where [7] appears, read: pH 7.4, PAMPA pH 7,4 Papp - upper.

The structures appear in SMILES notation.

On to `CC(C)Oc1ccc(NS(=O)(=O)c2cccc(NC(=O)c3cnccn3)c2)cc1` [AC-M110, N-(3-(N-(4-isopropoxyphenyl)sulfamoyl)phenyl)pyrazine-2-carboxamide], for which the half-maximal cytotoxic concentration (CC50) at 72 h in series [1] was 63 µM. For the same compound, the apparent permeability (Papp) at 5 h, 100 μM amounted to 3.4 ×10⁻⁶ cm/s in “in vitro” (setting [4]), 4.4 ×10⁻⁶ cm/s in “in vitro” (setting [5]), 9.1 ×10⁻⁶ cm/s in “in vitro” (setting [6]) and 9.6 ×10⁻⁶ cm/s in the series “in vitro” (setting [7]). Also, the “PAMPA Papp at pH 5.5” value in the series “in vitro” (pH 5.5) is listed as 3.4–4.5 × 10^−6. Also, the half-life at 1 μM in series [2] turned out to be 6 min. In addition, the microsomal CLint at 1 μM in series [2] is 97 µL/min/mg. In addition, the concentration at 1 h in series [3] was no more than 1000 nM. Further, in series [3], the “plasma concentration (in words)” value is “between EC50 and EC90”.

`COc1ccc(NS(=O)(=O)c2cccc(NC(=O)c3cnccn3)c2)cc1` [AC-R008, N-(3-(N-(4-methoxyphenyl)sulfamoyl)phenyl)pyrazine-2-carboxamide] gave a 50% cytotoxic concentration (CC50) at 72 h in series [1] of 99 µM. Moreover, the Papp at 5 h, 100 μM was 40.5 ×10⁻⁶ cm/s in the series “in vitro” (setting [4]); 56 ×10⁻⁶ cm/s in the series “in vitro” (setting [5]); 92 ×10⁻⁶ cm/s in the series “in vitro” (pH 7.4, PAMPA Papp at pH 7.4); 92 ×10⁻⁶ cm/s in the series “in vitro” (setting [6]); 86 ×10⁻⁶ cm/s in the series “in vitro” (setting [7]). Also, the parent compound remaining is given as 47% in series [2] (5 min) and “about 1%” in series [2] (60 min). In addition, the half-life at 1 μM in series [2] is 7 min. Moreover, the microsomal CLint at 1 μM in series [2] was 78 µL/min/mg. This compound also had a concentration at 1 h in series [3] of no more than 1000 nM. Besides, in series [3], the “plasma concentration (in words)” value was “between EC50 and EC90”.

One may read the CC50 as the concentration at which the toxic effect on the cells reaches its halfway point. As usually defined, the Papp is a coefficient for how fast a substance crosses the barrier. A lower Papp goes with slow passage.

Source of the values: publication PMC12698583, “Efficacy of sulfonamides targeting malic enzyme in an animal model of Chagas disease” (Frontiers in Pharmacology, 2025).
